# Data: PubChem BioAssay (NCI)
#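 Cells were grown in 96-well plates and exposed to each compound for 48 hours at five concentrations; endpoints were interpolated linearly between bracketing concentrations, or set to the highest concentration if not reached. At the GI50, growth is halved. Definition used: TGI = concentration required for complete inhibition of growth.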
# Legend:
# Assay in all cases: NCI tumour cell line growth inhibition, 48 h
# NCI-H23 lung = system: NCI-H23 lung
# OVCAR-5 ovarian = system: OVCAR-5 ovarian
# HCT-116 colon = system: HCT-116 colon
# UACC-257 melanoma = system: UACC-257 melanoma
# NCI-H460 lung = system: NCI-H460 lung
# OVCAR-8 ovarian = system: OVCAR-8 ovarian
# CAKI-1 renal = system: CAKI-1 renal
# SK-OV-3 ovarian = system: SK-OV-3 ovarian
# TK-10 renal = system: TK-10 renal
# U251 CNS = system: U251 CNS
smiles,measurement,setting,value
CCCCCC/C=C1\CCC(CN2CCCC2)C1=O (stereo not drawn),TGI,NCI-H23 lung,33.8 µM
same,TGI,OVCAR-5 ovarian,32.3 µM
same,TGI,HCT-116 colon,25 µM
same,TGI,UACC-257 melanoma,32.7 µM
same,TGI,NCI-H460 lung,> 62.1 µM
same,TGI,OVCAR-8 ovarian,39.2 µM
same,TGI,CAKI-1 renal,> 53.5 µM
same,TGI,SK-OV-3 ovarian,33 µM
same,TGI,TK-10 renal,17.4 µM
same,TGI,U251 CNS,30 µM
COC(=O)C1=C(C(=O)ON)C2C=CC1(C(Cc1ccccc1)Nc1ccccc1)O2 (stereo not drawn),GI50,NCI-H23 lung,12 µM
same,TGI,NCI-H23 lung,28.1 µM
same,GI50,OVCAR-5 ovarian,3.27 µM
same,TGI,OVCAR-5 ovarian,12.1 µM
same,GI50,HCT-116 colon,1.77 µM
same,TGI,HCT-116 colon,3.24 µM
same,GI50,UACC-257 melanoma,1.81 µM
same,TGI,UACC-257 melanoma,3.34 µM
same,GI50,NCI-H460 lung,18 µM
same,TGI,NCI-H460 lung,40.7 µM
same,GI50,OVCAR-8 ovarian,2.75 µM
same,TGI,OVCAR-8 ovarian,8.71 µM
same,GI50,CAKI-1 renal,1.63 µM
same,TGI,CAKI-1 renal,3.03 µM
same,GI50,SK-OV-3 ovarian,14.8 µM
same,TGI,SK-OV-3 ovarian,28 µM
same,GI50,TK-10 renal,1.71 µM
same,TGI,TK-10 renal,3.08 µM
same,GI50,U251 CNS,14.2 µM
same,TGI,U251 CNS,27.2 µM
C=C(CN1C(=O)[C@H]2CCCN2C(=O)c2ccccc21)c1ccc(C(=O)O)cc1,GI50,NCI-H23 lung,> 100 µM
same,TGI,NCI-H23 lung,> 100 µM
same,GI50,OVCAR-5 ovarian,> 100 µM
same,TGI,OVCAR-5 ovarian,> 100 µM
same,GI50,HCT-116 colon,> 100 µM
same,TGI,HCT-116 colon,> 100 µM
same,GI50,UACC-257 melanoma,> 100 µM
same,TGI,UACC-257 melanoma,> 100 µM
same,GI50,NCI-H460 lung,> 100 µM
same,TGI,NCI-H460 lung,> 100 µM
same,GI50,OVCAR-8 ovarian,> 100 µM
same,TGI,OVCAR-8 ovarian,> 100 µM
same,GI50,CAKI-1 renal,> 100 µM
same,TGI,CAKI-1 renal,> 100 µM
same,GI50,SK-OV-3 ovarian,> 100 µM
same,TGI,SK-OV-3 ovarian,> 100 µM
same,GI50,TK-10 renal,> 100 µM
same,TGI,TK-10 renal,> 100 µM
same,GI50,U251 CNS,> 100 µM
same,TGI,U251 CNS,> 100 µM
O=C(Nc1cccc(Cl)c1)c1ccc(NC2=C(Cl)C(=O)N(Cc3ccccc3)C2=O)cc1,GI50,NCI-H23 lung,13.6 µM
same,TGI,NCI-H23 lung,27 µM
same,GI50,OVCAR-5 ovarian,24.8 µM
same,TGI,OVCAR-5 ovarian,> 61.6 µM
same,GI50,HCT-116 colon,6.31 µM
same,TGI,HCT-116 colon,17.2 µM
same,GI50,UACC-257 melanoma,21.3 µM
same,TGI,UACC-257 melanoma,49.7 µM
same,GI50,NCI-H460 lung,9.11 µM
same,TGI,NCI-H460 lung,> 50.9 µM
same,GI50,OVCAR-8 ovarian,11.5 µM
same,TGI,OVCAR-8 ovarian,27.3 µM
same,GI50,CAKI-1 renal,14.7 µM
same,TGI,CAKI-1 renal,50.8 µM
same,GI50,SK-OV-3 ovarian,43.6 µM
same,TGI,SK-OV-3 ovarian,> 95.5 µM
same,GI50,TK-10 renal,16.4 µM
same,TGI,TK-10 renal,49.5 µM
same,GI50,U251 CNS,15.5 µM
same,TGI,U251 CNS,> 48.1 µM
COc1ccc(/C=C\c2cc(OC)c(OC)c(OC)c2)cc1OC(=O)c1cccc(Cn2cc(CCOC(=O)[C@H](N)Cc3cn(C)c4ccccc34)nn2)c1,GI50,NCI-H23 lung,< 0.01 µM
same,TGI,NCI-H23 lung,63.7 µM
same,GI50,OVCAR-5 ovarian,0.0886 µM
same,TGI,OVCAR-5 ovarian,> 100 µM
same,GI50,HCT-116 colon,< 0.01 µM
same,TGI,HCT-116 colon,38.7 µM
same,GI50,UACC-257 melanoma,11.4 µM
same,TGI,UACC-257 melanoma,47.6 µM
same,GI50,NCI-H460 lung,< 0.01 µM
same,TGI,NCI-H460 lung,> 42.8 µM
same,GI50,OVCAR-8 ovarian,< 0.01 µM
same,TGI,OVCAR-8 ovarian,> 100 µM
same,GI50,CAKI-1 renal,< 0.0139 µM
same,TGI,CAKI-1 renal,> 61.3 µM
same,GI50,SK-OV-3 ovarian,0.455 µM
same,TGI,SK-OV-3 ovarian,> 100 µM
same,GI50,TK-10 renal,25 µM
same,TGI,TK-10 renal,> 100 µM
same,GI50,U251 CNS,< 0.01 µM
same,TGI,U251 CNS,> 100 µM
CC(=O)[CH-]C(=O)c1ccccc1.CC(=O)[CH-]C(=O)c1ccccc1.[Eu+3].[OH-].[OH3+],GI50,NCI-H23 lung,> 100 µM
same,TGI,NCI-H23 lung,> 100 µM
same,GI50,HCT-116 colon,> 100 µM
same,TGI,HCT-116 colon,> 100 µM
same,GI50,UACC-257 melanoma,> 100 µM
same,TGI,UACC-257 melanoma,> 100 µM
same,GI50,NCI-H460 lung,> 100 µM
same,TGI,NCI-H460 lung,> 100 µM
same,GI50,OVCAR-8 ovarian,> 100 µM
same,TGI,OVCAR-8 ovarian,> 100 µM
same,GI50,CAKI-1 renal,> 100 µM
same,TGI,CAKI-1 renal,> 100 µM
same,GI50,SK-OV-3 ovarian,> 100 µM
same,TGI,SK-OV-3 ovarian,> 100 µM
same,GI50,TK-10 renal,> 100 µM
same,TGI,TK-10 renal,> 100 µM
same,GI50,U251 CNS,> 100 µM
same,TGI,U251 CNS,> 100 µM
